Measurements from paper PMC3264873 (Pharmaceutical Research, 2011).
Starred links: 1 amine or outer side, 2 acyl side, 3 side chain; linkers in the order of their positions; H or OH if unused. Positions of bridges follow the written chain, without caps; N, C: chain ends. Non-standard residues stand in square brackets, D forms with d. Residues, ends and D or L forms follow the SMILES beside them. Trp(2-yl) = O=C([C@H](Cc1c([*:3])[nH]c2ccccc12)N[*:1])[*:2]; Leu(4R-OH,5-OH) = C[C@](O)(CO)C[C@H](N)C(=O)O; cisHyp = O=C(O)[C@@H]1C[C@H](O)CN1

Target: T1, OATP1B1 (Homo sapiens, UniProt Q9Y6L6)
T1 sequence (Q9Y6L6 1-691): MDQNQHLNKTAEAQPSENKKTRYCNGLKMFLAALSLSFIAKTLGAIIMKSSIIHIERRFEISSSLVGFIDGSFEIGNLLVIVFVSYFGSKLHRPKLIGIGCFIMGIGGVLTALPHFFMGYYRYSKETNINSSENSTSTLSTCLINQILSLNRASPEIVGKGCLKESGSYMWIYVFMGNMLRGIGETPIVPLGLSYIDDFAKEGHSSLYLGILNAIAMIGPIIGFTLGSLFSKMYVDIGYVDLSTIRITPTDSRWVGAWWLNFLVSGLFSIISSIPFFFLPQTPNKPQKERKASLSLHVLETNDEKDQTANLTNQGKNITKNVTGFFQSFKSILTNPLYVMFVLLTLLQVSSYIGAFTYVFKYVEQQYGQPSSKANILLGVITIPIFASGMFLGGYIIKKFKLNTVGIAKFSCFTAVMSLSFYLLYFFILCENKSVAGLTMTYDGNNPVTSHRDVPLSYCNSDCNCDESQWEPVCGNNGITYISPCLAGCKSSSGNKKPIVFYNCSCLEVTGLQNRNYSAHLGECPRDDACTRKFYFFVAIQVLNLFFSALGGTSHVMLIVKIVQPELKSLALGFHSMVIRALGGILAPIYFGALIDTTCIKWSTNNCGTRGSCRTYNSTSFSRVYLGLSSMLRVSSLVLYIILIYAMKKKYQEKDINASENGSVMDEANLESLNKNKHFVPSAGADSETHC
Assay: Screening for inhibition of OATP1B1-mediated estradiol-17β-glucuronide uptake
Details: for Classification as OATP1B1 inhibitor (more than 50% inhibition of E17βG uptake): 20 μM test compound; for inhibition at 5 min, 100 µM: human

Molecule | Classification as OATP1B1 inhibitor (more than 50% inhibition of E17βG uptake) | inhibition at 5 min, 100 µM (pH 7.4, Inhibition of E17βG uptake, 100 μM test compound (data not shown)) | inhibition at 5 min, 100 µM (pH 7.4)
CNC(=O)c1cccnc1 [N-methylnicotinamide] | inhibitors | – | –
COC(=O)C1=C(C)NC(C)=C(C(=O)OCCN(C)Cc2ccccc2)C1c1cccc([N+](=O)[O-])c1 (stereo not shown) [Nicardipine] | inhibitors | – | –
C[C@@H]1[C@H](O)[C@@H](C)/C=C/C=C/CC/C=C/C=C/C=C/C=C/C(O[C@H]2O[C@H](C)[C@@H](O)[C@H](N)[C@@H]2O)CC2O[C@](O)(CC(O)C(O)CCC(O)CC(O)CC(O)CC(=O)O[C@H]1C)CC(O)C2C(=O)O (stereo partly shown) [Nystatin] | inhibitors | – | –
CC1(C)S[C@@H]2[C@H](NC(=O)Cc3ccccc3)C(=O)N2[C@H]1C(=O)O [Penicillin G] | – | 32% | –
C[C@@H]1NC(=O)[C@H](C[C@@](C)(O)CO)NC(=O)[C@@H]2Cc3c([nH]c4ccccc34)SC[C@H](NC(=O)[C@@H]([C@H](C)O)NC1=O)C(=O)N1C[C@@H](O)C[C@H]1C(=O)N[C@@H](C)C(=O)N2 [Phalloidin] (cyclo(A[dT]C[cisHyp]A[Trp(2-yl)][Leu(4R-OH,5-OH)]); thioether 3-6) | not identified as inhibitors | – | 49%
CCOc1cc(CC(=O)N[C@@H](CC(C)C)c2ccccc2N2CCCCC2)ccc1C(=O)O [Repaglinide] | classified as OATP1B1 inhibitors | – | –
COC(=O)[C@H]1[C@H]2C[C@@H]3c4[nH]c5cc(OC)ccc5c4CCN3C[C@H]2C[C@@H](OC(=O)c2cc(OC)c(OC)c(OC)c2)[C@@H]1OC [Reserpine] | inhibitors | – | –
CN(CCOc1ccc(CC2SC(=O)NC2=O)cc1)c1ccccn1 (stereo not shown) [Rosiglitazone] | classified as OATP1B1 inhibitors | – | –
CC(=O)S[C@@H]1CC2=CC(=O)CC[C@]2(C)[C@H]2CC[C@@]3(C)[C@@H](CC[C@@]34CCC(=O)O4)[C@H]12 [Spironolactone] | inhibitors | – | –
O=C(O)c1cc(/N=N/c2ccc(S(=O)(=O)Nc3ccccn3)cc2)ccc1O [Sulfasalazine] | inhibitors | – | –
C[C@H](CCC(=O)NCCS(=O)(=O)O)[C@H]1CC[C@H]2[C@@H]3[C@H](O)C[C@@H]4C[C@H](O)CC[C@]4(C)[C@H]3CC[C@]12C [Taurochenodeoxycholate] | inhibitors | – | –
C[C@H](CCC(=O)NCCS(=O)(=O)O)[C@H]1CC[C@H]2[C@@H]3CC[C@@H]4C[C@H](O)CC[C@]4(C)[C@H]3C[C@H](O)[C@]12C [Taurodeoxycholate] | inhibitors | – | –
CCC[C@@]1(CCc2ccccc2)CC(O)=C([C@H](CC)c2cccc(NS(=O)(=O)c3ccc(C(F)(F)F)cn3)c2)C(=O)O1 [Tipranavir] | inhibitors | – | –
CC[C@]1(O)C[C@@H]2CN(CCc3c([nH]c4ccccc34)[C@@](C(=O)OC)(c3cc4c(cc3OC)N(C)[C@H]3[C@@](O)(C(=O)OC)[C@H](OC(C)=O)[C@]5(CC)C=CCN6CC[C@]43[C@@H]65)C2)C1 [Vinblastine] | inhibitors | – | –
Ivermectin | inhibitors | – | –
